Drawing on patent US20240376085A1 (Janssen Pharmaceutica NV, priority 2021, published 2024), this text covers IC50 for 19 molecules.

One experiment has as its target T1, IL-17A : IL-17RA binding (Homo sapiens, UniProt Q16552, K93Q).
T1 construct: Name: IL-17A-Flag
The experiment is described as follows: IL-17A(FLAG-tagged):IL-17RA(His-tagged) binding disruption Eu-HTRF assay, Protocol 1. To be noted: FLAG-IL-17A 2.5 nM at 2x final concentration; average if tested more than once. A digest of the protocol:
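IC50 came from a one-site competition fit of the acceptor/donor (665/620 nm) HTRF ratio. His-tagged IL-17RA, Eu-anti-FLAG and D2-anti-His were added after a 1 h rt compound preincubation with FLAG-tagged IL-17A dimer in PBS/0.01% Triton X-100, followed by 2 h at rt before reading.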
In general terms: TR-FRET usually uses a lanthanide donor and a delayed reading to cut background.

Experiment [1] relates to IL-17A-induced G-CSF production in human normal keratinocyte (NHK). The experiment is described as follows: NHK assay: IL-17A-induced G-CSF production in normal human keratinocytes. The format is cell-based. The following applies: 24 h, IL-17A 5 ng/mL, average if tested more than once. The method, boiled down:
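IC50 derives from G-CSF in supernatants, quantified by HTRF from a standard curve, with CellTiter-Glo viability compared to DMSO control. Before a 24 h, 37°C culture of normal human keratinocytes at 3000–4000 cells/well, compound dilutions were preincubated 1 h at rt with human IL-17A (5 ng/mL final), with 0.2% DMSO and 5% FBS.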

As usually defined, the IC50 is the concentration that inhibits the measured activity by half.

T1 sequence (Q16552 with tags, fused parts or gaps K93Q): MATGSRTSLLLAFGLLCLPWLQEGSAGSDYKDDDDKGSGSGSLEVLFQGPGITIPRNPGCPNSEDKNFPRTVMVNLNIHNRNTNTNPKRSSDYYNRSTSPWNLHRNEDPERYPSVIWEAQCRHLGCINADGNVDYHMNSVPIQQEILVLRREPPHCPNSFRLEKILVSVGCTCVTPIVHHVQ

Regarding `Cc1nonc1C(=O)N[C@H](c1nc2ccc([C@H](NC(=O)CC3CC(F)(F)C3)C3CC3)cc2[nH]1)[C@H]1C[C@H](CC(F)(F)F)C1` (single isomer, unassigned) [Example 245], the IC50 was over 100 nM on IL-17A : IL-17RA binding and over 100 nM in experiment [1] (Homo sapiens, Keratinocyte).
With `C[C@@H](NC(=O)CCC(F)(F)F)c1ccc2[nH]c([C@@H](NC(=O)C3CC34CC4)C3CCC(F)(F)CC3)nc2c1` (stereo partly drawn) [Example 110, N—((S)-(4,4-Difluorocyclohexyl)(5-((R)-1-(4,4,4-trifluorobutanamido)ethyl)-1H-benzo[d]imidazol-2-yl)methyl)spiro[2.2]pentane-1-carboxamide], the half-inhibitory concentration (IC50) is over 100 nM at IL-17A : IL-17RA binding and over 100 nM in experiment [1] (Homo sapiens, Keratinocyte).
As for `C[C@@H](NC(=O)CCC(F)(F)F)c1ccc2[nH]c([C@@H](NC(=O)c3cnnn3CCCC(F)(F)F)C3CCC(F)(F)CC3)nc2c1` [Example 20, N—[(S)-(4,4-Difluorocyclohexyl)-[6-[(1R)-1-(4,4,4-trifluorobutanoylamino)ethyl]-1H-benzimidazol-2-yl]methyl]-3-(4,4,4-trifluorobutyl)triazole-4-carboxamide], the IC50 on IL-17A : IL-17RA binding is over 100 nM; in experiment [1] (Homo sapiens, Keratinocyte), 50 to 100 nM.
For `[2H]C([2H])([2H])C([2H])([2H])n1nccc1C(=O)N[C@@H](COC(C)(C)C(F)(F)F)c1nc2ccc([C@H](NC(=O)CC3CC(F)(F)C3)C3CC3)cc2[nH]1` [Example 76, N—((R)-1-(6-((R)-Cyclopropyl(2-(3,3-difluorocyclobutyl)acetamido)methyl)-1H-benzo[d]imidazol-2-yl)-2-((1,1,1-trifluoro-2-methylpropan-2-yl)oxy)ethyl)-1-(ethyl-d5)-1H-pyrazole-5-carboxamide], in that order: under 50 nM and under 50 nM.
For `C[C@@H](OC[C@H](NC(=O)c1nonc1C1CC1)c1nc2ccc([C@H](NC(=O)CC3CC(F)(F)C3)C3CC3)cc2[nH]1)C(F)(F)F` (relative stereo) [Example 155, 4-Cyclopropyl-N—((R*)-1-(6-((R)-cyclopropyl(2-(3,3-difluorocyclobutyl)acetamido)methyl)-1H-benzo[d]imidazol-2-yl)-2-(((R)-1,1,1-trifluoropropan-2-yl)oxy)ethyl)-1,2,5-oxadiazole-3-carboxamide], in that order: under 50 nM and over 100 nM.
For `CC(C)n1nccc1C(=O)N[C@H](c1nc2ccc([C@H](NC(=O)CC3CC(F)(F)C3)C3CC3)cc2[nH]1)[C@@H]1CCCCO1` (relative stereo) [Example 250, N—((R*)-(6-((R)-Cyclopropyl(2-(3,3-difluorocyclobutyl)acetamido)methyl)-1H-benzo[d]imidazol-2-yl)((S*)-tetrahydro-2H-pyran-2-yl)methyl)-1-isopropyl-1H-pyrazole-5-carboxamide], in that order: 50 to 100 nM and 50 to 100 nM.
`CC(C)n1nccc1C(=O)N[C@H](c1nc2ccc([C@H](NC(=O)CC3CC(F)(F)C3)C3CC3)cc2[nH]1)C1CCCCO1` (single isomer, unassigned) [Example 253, N—((R)-(6-((R)-Cyclopropyl(2-(3,3-difluorocyclobutyl)acetamido)methyl)-1H-benzo[d]imidazol-2-yl)((R*)-tetrahydro-2H-pyran-2-yl)methyl)-1-isopropyl-1H-pyrazole-5-carboxamide]: the IC50 on IL-17A : IL-17RA binding is over 100 nM; in experiment [1] (Homo sapiens, Keratinocyte) it was over 100 nM.
Regarding `CC(NC(=O)CCC(F)(F)F)c1ccc2nc([C@H](CC(C)(C)C(F)(F)F)NC(=O)c3ccnn3C(C)C)[nH]c2c1` (single isomer, unassigned) [Example 231, 1-Isopropyl-N—((S)-4,4,4-trifluoro-3,3-dimethyl-1-(6-((S*)-1-(4,4,4-trifluorobutanamido)ethyl)-1H-benzo[d]imidazol-2-yl)butyl)-1H-pyrazole-5-carboxamide], the IC50 is over 100 nM on IL-17A : IL-17RA binding and over 100 nM in experiment [1] (Homo sapiens, Keratinocyte).
On to `CC(C)n1cncc1C(=O)N[C@H](c1nc2cc([C@@H](C)NC(=O)CCC(F)(F)F)ccc2[nH]1)C1CCC(F)(F)CC1` [Example 208, N—((S)-(4,4-Difluorocyclohexyl)(5-((R)-1-(4,4,4-trifluorobutanamido)ethyl)-1H-benzo[d]imidazol-2-yl)methyl)-1-isopropyl-1H-imidazole-5-carboxamide], for which the IC50 is over 100 nM at IL-17A : IL-17RA binding and over 100 nM in experiment [1] (Homo sapiens, Keratinocyte).
On to `C[C@@H](NC(=O)CCC(F)(F)F)c1ccc2[nH]c([C@@H](NC(=O)c3cnnn3CC3CC3(F)F)C3CCC(F)(F)CC3)nc2c1` (stereo partly drawn) [Example 80, N—((S)-(4,4-Difluorocyclohexyl)(5-((R)-1-(4,4,4-trifluorobutanamido)ethyl)-1H-benzo[d]imidazol-2-yl)methyl)-1-((2,2-difluorocyclopropyl)methyl)-1H-1,2,3-triazole-5-carboxamide], for which the half-maximal inhibitory concentration (IC50) is over 100 nM on IL-17A : IL-17RA binding and 50 to 100 nM in experiment [1] (Homo sapiens, Keratinocyte).
On to `CC(C)n1cccc1C(=O)N[C@H](c1nc2cc([C@@H](C)NC(=O)CCC(F)(F)F)ccc2[nH]1)C1CCC(F)(F)CC1` [Example 213, N—((S)-(4,4-Difluorocyclohexyl)(5-((R)-1-(4,4,4-trifluorobutanamido)ethyl)-1H-benzo[d]imidazol-2-yl)methyl)-1-isopropyl-1H-pyrrole-2-carboxamide], for which the 50% inhibitory concentration (IC50) at IL-17A : IL-17RA binding is under 50 nM; in experiment [1] (Homo sapiens, Keratinocyte) it was under 50 nM.
Turning to `CC(C)n1nccc1C(=O)N[C@H](c1nc2cc([C@@H](NC(=O)CC3CC(F)(F)C3)C3CC3)ccc2[nH]1)C1CCC(F)(F)CC1` [Example 146, N—((S)-(5-((S)-Cyclopropyl(2-(3,3-difluorocyclobutyl)acetamido)methyl)-1H-benzo[d]imidazol-2-yl)(4,4-difluorocyclohexyl)methyl)-1-isopropyl-1H-pyrazole-5-carboxamide], the IC50 at IL-17A : IL-17RA binding is over 100 nM; in experiment [1] (Homo sapiens, Keratinocyte) it was over 100 nM.
For the molecule `CC(C)CCn1ncc(C(=O)N[C@H](c2nc3cc([C@@H](C)NC(=O)CCC(F)(F)F)ccc3[nH]2)C2CCC(F)(F)CC2)c1C(C)C` [Example 11, N—[(S)-(4,4-Difluorocyclohexyl)-[6-[(1R)-1-(4,4,4-trifluorobutanoylamino)ethyl]-1H-benzimidazol-2-yl]methyl]-1-isopentyl-5-isopropyl-pyrazole-4-carboxamide], the half-inhibitory concentration (IC50) at IL-17A : IL-17RA binding is over 100 nM; in experiment [1] (Homo sapiens, Keratinocyte), over 100 nM.
Regarding `O=C(CC1CC(F)(F)C1)N[C@@H](c1ccc2[nH]c([C@@H](NC(=O)c3nonc3C3CC3)[C@H]3[C@@H]4CC(F)(F)C[C@@H]43)nc2c1)C1CC1` [Example 266, 4-Cyclopropyl-N—((S)-(5-((R)-cyclopropyl(2-(3,3-difluorocyclobutyl)acetamido)methyl)-1H-benzo[d]imidazol-2-yl)((1R,5S,6r)-3,3-difluorobicyclo[3.1.0]hexan-6-yl)methyl)-1,2,5-oxadiazole-3-carboxamide], the IC50 was under 50 nM at IL-17A : IL-17RA binding and under 50 nM in experiment [1] (Homo sapiens, Keratinocyte).
As to `C[C@@H](NC(=O)CCC(F)(F)F)c1ccc2[nH]c([C@@H](NC(=O)[C@@H]3C[C@H]3C#N)C3CCC(F)(F)CC3)nc2c1` (relative stereo) [Example 104, trans-(1R*,2R*)-2-Cyano-N—((S)-(4,4-difluorocyclohexyl)(5-((R)-1-(4,4,4-trifluorobutanamido)ethyl)-1H-benzo[d]imidazol-2-yl)methyl)cyclopropane-1-carboxamide], the half-maximal inhibitory concentration (IC50) at IL-17A : IL-17RA binding was over 100 nM; in experiment [1] (Homo sapiens, Keratinocyte) it was over 100 nM.
As for `CC(CC(=O)N[C@@H](c1ccc2nc([C@H](CC(C)(C)C(F)(F)F)NC(=O)c3nonc3C3CC3)[nH]c2c1)C1CC1)C(F)(F)F` (single isomer, unassigned) [Example 182, 4-Cyclopropyl-N—((S)-1-(6-((R)-cyclopropyl((S*)-4,4,4-trifluoro-3-methylbutanamido)methyl)-1H-benzo[d]imidazol-2-yl)-4,4,4-trifluoro-3,3-dimethylbutyl)-1,2,5-oxadiazole-3-carboxamide], the IC50 (at IL-17A : IL-17RA binding; in experiment [1]) was under 50 nM in each case.
In the case of `CC(C)n1nccc1C(=O)N[C@H](c1nc2cc([C@@H](C)NC(=O)CC(C(F)(F)F)C(F)(F)F)ccc2[nH]1)C1CCC(F)(F)CC1` [Example 125, N—((S)-(4,4-Difluorocyclohexyl)(5-((R)-1-(4,4,4-trifluoro-3-(trifluoromethyl)butanamido)ethyl)-1H-benzo[d]imidazol-2-yl)methyl)-1-isopropyl-1H-pyrazole-5-carboxamide], the 50% inhibitory concentration (IC50) on IL-17A : IL-17RA binding is over 100 nM; in experiment [1] (Homo sapiens, Keratinocyte) it was under 50 nM.
For `O=C(CC1CC(F)(F)C1)N[C@@H](c1ccc2nc([C@@H](NC(=O)c3nonc3C3CC3)[C@@H]3CCCC(F)(F)C3)[nH]c2c1)C1CC1` [Example 171, 4-Cyclopropyl-N—((S)-(6-((R)-cyclopropyl(2-(3,3-difluorocyclobutyl)acetamido)methyl)-1H-benzo[d]imidazol-2-yl)((R)-3,3-difluorocyclohexyl)methyl)-1,2,5-oxadiazole-3-carboxamide], in that order: 50 to 100 nM and under 50 nM.
Regarding `C[C@@H](NC(=O)CCC(F)(F)F)c1ccc2[nH]c([C@@H](NC(=O)C3CC3)C3CCC(F)(F)CC3)nc2c1` [Example 94, N—((S)-(4,4-Difluorocyclohexyl)(5-((R)-1-(4,4,4-trifluorobutanamido)ethyl)-1H-benzo[d]imidazol-2-yl)methyl)cyclopropanecarboxamide], the IC50 on IL-17A : IL-17RA binding was over 100 nM; in experiment [1] (Homo sapiens, Keratinocyte), over 100 nM.
